Where “and” joins values, the source holds several entries; their conditions need not be identical. Equal values may be shown once.
Test system: left anterior descending coronary artery (LAD) occlusion, Sprague-Dawley rats
Assay: Ventricular arrhythmias (Lown classification, VPB-Score) during final permanent LAD occlusion
Assay type: in vivo, rat

SMILES	rats with class 0 arrhythmias (Lown) (rat, in vivo) [%]	rats with class IIIa arrhythmias (Lown) (rat, in vivo) [%]	rats with class IVb arrhythmias (Lown) (rat, in vivo)	rats with class IIIa arrhythmias (Lown) (5 DAYS RIP, during FPO) [%]	rats with class IVb arrhythmias (Lown) (5 DAYS RIP, during FPO) [%]
O=[N+]([O-])OCC(CO[N+](=O)[O-])O[N+](=O)[O-] [NTG, nitroglycerin]	57.1	14.3	85.7% and 42.9%	–	–
CC(=O)Oc1ccccc1C(=O)O [ASA, acetyl salicylic acid]	–	–	–	16.7	83.3

From patent US9675552B2, “Use of stabilized granules containing glyceryl trinitrate for arteriogenesis” (G. Pohl-Boskamp GmbH & Co. KG, priority 2012, dated 2017)
